One assay concerns human Oct4 promoter. As to the kind of experiment: Oct4-luc luciferase reporter assay (stably transfected CV1 cells). The assay is classed as cell-based. To be noted: for fold induction at 1 µM: compound at 1 μM, Oct4-luc cells, triplicates. For orientation: In a reporter assay the amount or activity of a reporter protein is the signal.
For assay [1], the system named is mouse embryonic fibroblasts (MEFs). Nature of the assay: iPSC derivation from 4F (OSKM)-transduced MEFs in mouse ESC media. The assay is classed as cell-based. The method, then:
The generation of iPSCs is a gradual process with relatively low efficiency. Since Oct4 is central to the reprogramming process (35, 36, 38), it was hypothesized that compounds that activate Oct4 transcription may facilitate iPSC generation by enhancing reprogramming efficiency. Reprogramming of mouse embryonic fibroblasts (MEFs) was performed with the 4F reprogramming quartet Oct4, Sox2, Klf4, and c-Myc, along with solvent control, OAC1 or its structural analogs OAC2 and OAC3. The same number of starting MEFs and the same viral stocks were used for each treatment. Two days after viral transduction, the 4F-transduced cells were seeded onto feeder cells in mouse ESC culture media, and this day was designated as day 0 (FIG. 2D). Compound treatment started on day 0 and lasted for 7 days. By counting the number of clones with ESC-like morphology at day 18, both OAC1 and its analogs OAC2 and OAC3 enhanced the 4F-induced reprogramming efficiency considerably. The number of colonies with ESC-like morphology (FIG. 2E) increased 2-fold or more in 4F plus OAC (4F+OAC) treatment, compared to the 4F treatment alone (FIG. 2F, Table 3).
iPSC Derivation in Mouse ESC Media: OG2/R26MEFs were seeded onto […] at the density of 4×10^4 cells per well in DMEM medium with 10% FBS, 0.1 mM non-essential amino acids (NEAA), and 0.1 mM L-glutamine, 24 hr before transduction. Freshly concentrated viruses of the four factors, Oct4, Sox2, c-Myc, and Klf4, were added to the cells. Two days after viral infection, the viral-transduced OG2/R26MEFs were split into new 6-well plates with irradiated MEF feeder cells and cultured in mouse ESC culture medium containing 15% ESC qualified FBS, 2 mM L-glutamine, 0.1 mM 2-mercaptoethanol, 0.1 mM NEAA, 1 mM sodium pyruvate and 1000 U/ml of leukemia inhibitory factor (LIF), and this day was defined as day 0. 1 μM of each compound (OAC1, OAC2, and OAC3) was added to the 4F-transduced cells at day 0 and treatment was continued for 1 week. When iPSC colonies emerged, these colonies were picked for expansion on irradiated MEF feeders in mouse ESC medium.

Each structure is given as a SMILES string. Read-outs that look alike come from different tables or passages of the source.

Regarding `O=C(Nc1cc2cc[nH]c2cn1)c1ccccc1` [OAC1, N-(1H-6-azaindol-5-yl)benzamide], the “activation of Oct4-luc at 50 nM” value in the assay on human Oct4 promoter (50 nM, two days after compound treatment) is recorded as “activated Oct4-luc considerably”. For the same compound, the fold induction at 1 µM was at least 1.8 in the assay with human Oct4 promoter (Homo sapiens, CV-1, 24 h, read-out: Oct4-luc Activity) and 5 in the assay on human Oct4 promoter (read-out: Oct4-luc fold Induction). Also, the “induction of Oct4-luc, comparison with known reprogramming enhancers (in words)” value with human Oct4 promoter (OAC1 1 μM, BIO 2 μM, BIX 2 μM, AzaC 2 μM, Vc 25 μg/ml, Am580 10 nM, tranylcypromine 5 μM, VPA 0.5 mM, two days) was “potent induction”. Besides, the “concentration of highest induction of Oct4-luc” value in the assay with human Oct4 promoter (dose response 50 nM to 1 μM, 2 to 7 days) came out at 1 µM. In addition, the “activation of human Oct4 reporter (in words)” value in the assay on human Oct4 promoter (triplicate luciferase reporter assays) is recorded as “considerable activation”. Besides, the “advance of the appearance of putative iPSC colonies compared to 4F only reprogramming” value in assay [1] (4F+OAC) is given as “about three to four”. In assay [1] (MEFs in mouse ESC media, OSKM, seeding 3 × 10^4, day 18, 1 μM compound), the Colony numbers is 130. In addition, the Reprogramming efficiency in assay [1] (MEFs in mouse ESC media, OSKM, seeding 3 × 10^4, day 18, colony numbers divided by seeding cell numbers) is given as 0.43%.

The values are drawn from US8962322B2, “Enhancers of induced pluripotent stem cell reprogramming” (City of Hope, priority 2012, dated 2015).
